# Values of other authors as cited in patent US12708655B2, “Botanicals as WNT/beta-catenin activators, molecular pathway regulators, tissue regenerators and health biomarker regulators” (Arbor Life Holdings, Ltd., priority 2020, dated 2026).
# Assays:
# [1] = compounds found in Eclipta; NA = Not Applicable; cited from earlier work
# [2] = compounds found in Eclipta; NA = Not Applicable; cited from earlier work; remark: listed apart in the source
compound,measurement,setting,value
COC[C@@H]1Cc2cc(OC)c3c(c2[C@H](c2ccc(OC)c(OC)c2)[C@H]1COC)OCO3 [Hypophyllanthin],Anticancer activity (AC),[1],YES
same,Antioxidant activity (AO),[2],YES
Demethylwedelolactone 7-glucoside,Anticancer activity (AC),[1],YES
same,Antioxidant activity (AO),[2],YES
O=c1cc(-c2ccc(O)c(O)c2)oc2cc(O[C@@H]3O[C@H](CO)[C@@H](O)[C@H](O)[C@H]3O)cc(O)c12 [Cynaroside],Anticancer activity (AC),[1],YES
same,Antioxidant activity (AO),[2],YES
Oc1ccccc1O [Catechol],Anticancer activity (AC),[1],YES
same,Antioxidant activity (AO),[2],YES
CC1(C)CC[C@]2(C)CC[C@]3(C)C(=CC[C@@H]4[C@@]5(C)CC[C@H](O)C(C)(C)[C@@H]5CC[C@]43C)[C@@H]2C1 [β-amyrin],Antioxidant activity (AO),[2],YES
O=c1oc2cc(O)cc(O)c2c2oc3cc(O)c(O)cc3c12 [Demethylwedelolactone],Anticancer activity (AC),[1],YES
same,Antioxidant activity (AO),[2],YES
O=c1cc(-c2ccc(O)cc2)oc2cc(O[C@@H]3O[C@H](CO)[C@@H](O)[C@H](O)[C@H]3O)cc(O)c12 [Apigenin-7-O-glucoside],Anticancer activity (AC),[1],YES
same,Antioxidant activity (AO),[2],YES
CC[C@H](CC[C@@H](C)[C@H]1CC[C@H]2[C@@H]3CC=C4C[C@@H](O)CC[C@]4(C)[C@H]3CC[C@]12C)C(C)C [β-sitosterol],Anticancer activity (AC),[1],YES
same,Antioxidant activity (AO),[2],YES
O[C@H]1[C@H](O)[C@@H](O)[C@H](O)[C@@H](O)[C@H]1O [Myoinositol],Anticancer activity (AC),[1],YES
same,Antioxidant activity (AO),[2],YES
O=C(O)c1cccnc1 [Nicotinic acid],Anticancer activity (AC),[1],YES
same,Antioxidant activity (AO),[2],YES
O=C(O)c1ccc(O)cc1 [4-hydroxybenzoic acid],Anticancer activity (AC),[1],YES
same,Antioxidant activity (AO),[2],YES
C[C@@H]1O[C@@H](Oc2c(-c3ccc(O)c(O)c3)oc3cc(O)cc(O)c3c2=O)[C@H](O)[C@H](O)[C@H]1O [Quercetin-3-rhamnoside],Anticancer activity (AC),[1],YES
same,Antioxidant activity (AO),[2],YES
COc1cc(O)c2c(c1)oc(=O)c1c3cc(O)c(O)cc3oc21 [Wedelolactone],Anticancer activity (AC),[1],YES
same,Antioxidant activity (AO),[2],YES
OCc1ccc(-c2ccc(-c3cccs3)s2)s1 [α-terthienyl methanol],Anticancer activity (AC),[1],YES
O=C(/C=C/c1ccc(O)c(O)c1)c1ccc(O)cc1O [Butein],Anticancer activity (AC),[1],YES
same,Antioxidant activity (AO),[2],YES
Echinocystic acid,Anticancer activity (AC),[1],YES
"O=C(O)c1ccc(O)c(O)c1 [3,4-dihydroxybenzoic acid]",Anticancer activity (AC),[1],YES
same,Antioxidant activity (AO),[2],YES
O=c1cc(-c2ccc(O)c(O)c2)oc2cc(O)cc(O)c12 [Luteolin],Anticancer activity (AC),[1],YES
same,Antioxidant activity (AO),[2],YES
O=C(O)c1cc(O)c(O)c(O)c1 [Gallic acid],Anticancer activity (AC),[1],YES
same,Antioxidant activity (AO),[2],YES
CC[C@H](/C=C/[C@@H](C)[C@H]1CC[C@H]2[C@@H]3CC=C4C[C@@H](O)CC[C@]4(C)[C@H]3CC[C@]12C)C(C)C [Stigmasterol],Anticancer activity (AC),[1],YES
same,Antioxidant activity (AO),[2],YES
O=c1cc(-c2ccc(O)cc2)oc2cc(O)cc(O)c12 [Apigenin],Anticancer activity (AC),[1],YES
same,Antioxidant activity (AO),[2],YES
